Experimental data reported in US20140243403A1, “TREATING COLORECTAL, PANCREATIC, AND LUNG CANCER” (The General Hospital Corporation, priority 2011, published 2014).

Tests used:
[1] = system: KRAS mutant pancreatic ductal adenocarcinoma (PDAC) cells; assay: Sensitivity of KRAS mutant PDAC cell lines; assay type: cell-based; settings: 5 KRAS mutant PDAC cell lines, APC wild-type
Method: (B) 5Z-7-oxozeaenol IC50 values for KRAS mutant PDAC and NSCLC cell lines.
To determine if sensitivity to TAK1 inhibition is specific to colon cancer-derived cell lines, sensitivity to 5Z-7-oxozeaenol was assessed in 5 KRAS mutant pancreatic ductal adenocarcinoma (PDAC) and 4 non-small cell lung cancer (NSCLC) cells, all of which are APC wild-type (FIG. 9B).

[2] = system: HCT8 and SW837 (KRAS-independent) xenografted tumors; assay: Subcutaneous xenografted tumors, KRAS-independent; assay type: in vivo, NOD/SCID mice; settings: 15 mg/kg daily intraperitoneal
Method: (C) TAK1 inhibition in mice with xenografted human tumors derived from the HCT8/SW837 (KRAS-independent) and SK-CO-1/SW620 (KRAS-dependent) cell lines. Cells expressing firefly luciferase were injected subcutaneously into the flanks of […]. Tumors are shown as imaged by IVIS detection of luminescence counts (in photons/sec) following 14 days of tumor growth followed by 6 days of treatment with either 15 mg/kg 5z-7-oxozeaenol or vehicle ([…] in arachis oil), IP delivery q.d. Quantitation of tumor volume (mm^3) is plotted on the right. Tumor volume data are represented as the mean of 4 tumors in 2 mice for each group+/−SEM.
To validate the efficacy of 5Z-7-oxozeaenol in vivo, subcutaneous xenografted tumors were generated in NOD/SCID mice using four representative KRAS mutant cell lines: HCT8 and SW837 (KRAS-independent), and SK-CO-1 and SW620 (KRAS-dependent). Human colorectal cancer tumor cells were trypsinized and resuspended as single cell suspensions at 3×10^7 cells per ml in PBS. 100 μL (3×10^6 cells total) of this suspension were injected into opposite left and right flanks of NOD/SCID mice. All mice were housed in a pathogen-free environment. Tumor size was monitored daily and once tumor volume had reached approximately 200 mm^3, treatment with 5Z-7-oxozeaenol was initiated (7 to 14 days post-implantation). Mice were injected daily with 15 mg/kg 5Z-7-oxozeaenol. […]

[3] = Toxicity in treated xenograft mice; assay type: in vivo, NOD/SCID mice; settings: 15 mg/kg daily intraperitoneal
Method: To validate the efficacy of 5Z-7-oxozeaenol in vivo, subcutaneous xenografted tumors were generated in NOD/SCID mice using four representative KRAS mutant cell lines: HCT8 and SW837 (KRAS-independent), and SK-CO-1 and SW620 (KRAS-dependent). Human colorectal cancer tumor cells were trypsinized and resuspended as single cell suspensions at 3×10^7 cells per ml in PBS. 100 μL (3×10^6 cells total) of this suspension were injected into opposite left and right flanks of NOD/SCID mice. All mice were housed in a pathogen-free environment. Tumor size was monitored daily and once tumor volume had reached approximately 200 mm^3, treatment with 5Z-7-oxozeaenol was initiated (7 to 14 days post-implantation). Mice were injected daily with 15 mg/kg 5Z-7-oxozeaenol. The drug was resuspended as a 25 mg/ml stock in DMSO. This was further diluted 10-fold in Arachis Oil (Sigma Inc.) to yield a 2.5 mg/ml stock in 10% DMSO. Approximately 120 μl of this stock was delivered to 20 g mice intraperitoneally. Alternatively, 10% DMSO in Arachis Oil was delivered as a vehicle control.
Palpable tumors were evident two weeks post-implantation, at which time mice were treated with either daily intraperitoneal 15 mg/kg of 5Z-7-oxozeaenol or vehicle alone (Rawlins et al., 1999).

[4] = system: TOP-FLASH TCF4-responsive luciferase reporter; assay: TOP-FLASH TCF4 luciferase reporter in colon cancer cell lines; assay type: cell-based, human
Text: (B) TOP-FLASH activity in KRAS-independent and KRAS-dependent cell lines following TAK1 inhibition with indicated concentrations (μM). Data are represented as means of triplicate experiments±SEM.
Since Wnt pathway enrichment was found in KRAS-dependent cells (FIG. 8C), the TAK1 dependency signature was overlapped with a dataset of binding sites for the Wnt-regulated transcription factor TCF4, derived from ChIP-on-Chip analyses (Hatzis et al., 2008). Of the 32 TAK1 dependency genes, 18 contained proximal TCF4 binding sites. A number of these genes, such as BAMBI, PROX1 and NAV2 (HELAD1) have been previously linked to colon tumorigenesis in the context of deregulated Wnt signaling (Lin et al., 2008; Petrova et al., 2008; Sekiya et al., 2004). Basal Wnt signaling activity was measured by TOP-FLASH TCF4-responsive luciferase assays. Cells were plated in 12-well tissue culture plates at a density of 5×10^4 cells/ml and 1 ml per well. Cells were then co-transfected with either 0.5 μg FOP-FLASH or TOP-FLASH plasmids plus 50 ng of pRL-TK (expressing Renilla luciferase). […]
To explore the role of KRAS and TAK1 in modulating Wnt signaling, the effect of KRAS depletion on β-catenin/TCF transcription was first assessed in a panel of KRAS mutant cell lines using the TOP-FLASH reporter (FIGS. 5A and 11A). […]

COc1cc(O)c2c(c1)/C=C/C[C@H](O)[C@H](O)C(=O)/C=C\C[C@H](C)OC2=O [5Z-7-oxozeaenol]
sensitivity to 5Z-7-oxozeaenol [1]: largely refractory
tumor response (imaging, tumor volume) [2]: no significant response
toxicity in treated mice [3]: No overt toxicity
IC50 ([4]; KRAS-independent cells, 24 h treatment, read-out: IC50 for effect on TOP-FLASH activity): > 10 µM
TOP-FLASH activity response ([4]; SW837 cells, increased at low doses, reduced at 5 μM): biphasic response
